Results reported in ChEMBL document CHEMBL1201862, “PubChem BioAssay data set” (2004).
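Dose response: 5 concentrations. Exposure: 48 h. Format: 96-well plates. Endpoint: linear interpolation; highest concentration if not reached. Abbreviation: GI50, concentration required for 50% inhibition of growth.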 Activity calls are given as the source filed them. No stated cut-off is given here; in the data, active = GI50 up to about 1.1 µM and inactive = higher.

How the values were obtained:
Experiment in all cases: NCI tumour cell line growth inhibition, 48 h
CAKI-1 = system: CAKI-1
CCRF-CEM = system: CCRF-CEM
HCC 2998 = system: HCC 2998
HCT-15 = system: HCT-15
HL-60 = system: HL-60
Hs-578T = system: Hs-578T
KM12 = system: KM12
MDA-MB-231 = system: MDA-MB-231
MDA-MB-435 = system: MDA-MB-435
MOLT-4 = system: MOLT-4
NCI/ADR-RES = system: NCI/ADR-RES
OVCAR-5 = system: OVCAR-5
SF-295 = system: SF-295
SF-539 = system: SF-539
SK-MEL-2 = system: SK-MEL-2
SR = system: SR
SW-620 = system: SW-620
U-251 = system: U-251
UO-31 = system: UO-31
UACC-257 = system: UACC-257

SMILES | GI50 (CAKI-1) | GI50 (CCRF-CEM) | GI50 (HCC 2998) | GI50 (HCT-15) [µM] | GI50 (HL-60) | GI50 (Hs-578T) | GI50 (KM12) | GI50 (MDA-MB-231) | GI50 (MDA-MB-435) | GI50 (MOLT-4) | GI50 (NCI/ADR-RES) | GI50 (OVCAR-5) | GI50 (SF-295) | GI50 (SF-539) | GI50 (SK-MEL-2) | GI50 (SR) | GI50 (SW-620) | GI50 (U-251) | GI50 (UO-31) | GI50 (UACC-257)
COP(=O)(OC)/C(=C/c1cn(C(c2ccccc2)(c2ccccc2)c2ccccc2)cn1)NC=O | 20.4 µM (inactive) | 24.8 µM (inactive) | 16.7 µM (inactive) | 25.6 | > 100 µM (inactive) | 16 µM (inactive) | 32.9 µM (inactive) | 16.2 µM (inactive) | 18.1 µM (inactive) | > 100 µM (inactive) | 17.3 µM (inactive) | 20.6 µM (inactive) | 13.8 µM (inactive) | 14.4 µM (inactive) | 16.9 µM (inactive) | > 100 µM (inactive) | 26 µM (inactive) | 16.4 µM (inactive) | 12.9 µM (inactive) | –
COc1cc2oc(=O)ccc2cc1C1OC(=O)C2OC21C (configuration not stated) | > 100 µM (inactive) | > 100 µM (inactive) | > 100 µM (inactive) | > 100 | > 100 µM (inactive) | 54.6 µM (inactive) | > 100 µM (inactive) | > 100 µM (inactive) | > 100 µM (inactive) | > 100 µM (inactive) | > 100 µM (inactive) | > 100 µM (inactive) | > 100 µM (inactive) | > 100 µM (inactive) | > 100 µM (inactive) | > 100 µM (inactive) | > 100 µM (inactive) | > 100 µM (inactive) | 64.9 µM (inactive) | > 100 µM (inactive)
C[C@@H](NC(=O)c1ccc(CNC(=O)/C=C/c2cccc(Oc3ccccc3)c2)cc1)c1ccccc1 | 14.7 µM (inactive) | > 100 µM (inactive) | > 100 µM (inactive) | > 100 | > 100 µM (inactive) | 7.33 µM (inactive) | > 100 µM (inactive) | > 100 µM (inactive) | > 100 µM (inactive) | > 100 µM (inactive) | > 100 µM (inactive) | 78.9 µM (inactive) | 26.8 µM (inactive) | 12.2 µM (inactive) | > 60.1 µM (inactive) | > 100 µM (inactive) | > 100 µM (inactive) | 47.4 µM (inactive) | 10.7 µM (inactive) | 55.7 µM (inactive)
O=c1[nH]n(Cc2ccccc2Cl)c2ccc([N+](=O)[O-])cc12 | > 100 µM (inactive) | 45.2 µM (inactive) | 50.1 µM (inactive) | 58.6 | 31.6 µM (inactive) | 48.9 µM (inactive) | 63.5 µM (inactive) | 39.4 µM (inactive) | 3.98 µM (inactive) | 35.8 µM (inactive) | 28.1 µM (inactive) | > 100 µM (inactive) | – | 54.2 µM (inactive) | 34.7 µM (inactive) | 29.2 µM (inactive) | 53.7 µM (inactive) | 75.9 µM (inactive) | 34.3 µM (inactive) | > 100 µM (inactive)
Nc1cccc(Nc2nc3ccccc3nc2NS(=O)(=O)c2ccccc2)c1 | 27 µM (inactive) | 15.2 µM (inactive) | 15.9 µM (inactive) | 25.6 | 20.7 µM (inactive) | 41.7 µM (inactive) | 18.8 µM (inactive) | 14.8 µM (inactive) | 23.6 µM (inactive) | 15.9 µM (inactive) | 27.3 µM (inactive) | 30.3 µM (inactive) | 27.5 µM (inactive) | 19.1 µM (inactive) | 15.7 µM (inactive) | 20.3 µM (inactive) | 18.4 µM (inactive) | 17.7 µM (inactive) | 16 µM (inactive) | 31.3 µM (inactive)
O=C(OCC(OC(=O)c1ccccc1)C1CC(C(O)C2CCCCC2)C(=O)O1)c1ccccc1 (configuration not stated) | > 100 µM (inactive) | 22.5 µM (inactive) | 47.9 µM (inactive) | 43.2 | 16.4 µM (inactive) | > 100 µM (inactive) | 41.8 µM (inactive) | > 100 µM (inactive) | > 100 µM (inactive) | 22 µM (inactive) | 23.2 µM (inactive) | > 100 µM (inactive) | 86.7 µM (inactive) | 25.1 µM (inactive) | > 100 µM (inactive) | 20.1 µM (inactive) | 42.3 µM (inactive) | 71.6 µM (inactive) | > 100 µM (inactive) | > 100 µM (inactive)
COc1ccc2nccc(NCCCN3CCN(CCCNc4ccnc5ccc(OC)cc45)CC3)c2c1 | 3.69 µM (inactive) | 0.0828 µM (active) | 0.505 µM (active) | 11.8 | 0.0953 µM (active) | 0.237 µM (active) | 0.357 µM (active) | 0.357 µM (active) | 0.427 µM (active) | 0.107 µM (active) | 18.2 µM (inactive) | 0.826 µM (active) | 0.975 µM (active) | 0.173 µM (active) | 1.25 µM (inactive) | 0.505 µM (active) | 0.11 µM (active) | 0.232 µM (active) | 8.13 µM (inactive) | 1.04 µM (active)
O=C1Nc2cccc(Cl)c2/C1=C\c1c(Cl)nc2n1CCS2 | > 100 µM (inactive) | > 100 µM (inactive) | > 100 µM (inactive) | 96.6 | > 100 µM (inactive) | > 100 µM (inactive) | > 100 µM (inactive) | > 100 µM (inactive) | 35.1 µM (inactive) | > 100 µM (inactive) | > 100 µM (inactive) | > 100 µM (inactive) | > 100 µM (inactive) | 89.1 µM (inactive) | > 100 µM (inactive) | > 100 µM (inactive) | > 100 µM (inactive) | > 100 µM (inactive) | > 100 µM (inactive) | > 100 µM (inactive)
[O-]/[N+](=N\c1ccccc1CO)c1ccccc1CO | > 100 µM (inactive) | > 100 µM (inactive) | > 100 µM (inactive) | > 100 | > 100 µM (inactive) | > 100 µM (inactive) | > 100 µM (inactive) | > 100 µM (inactive) | > 100 µM (inactive) | > 100 µM (inactive) | > 100 µM (inactive) | > 100 µM (inactive) | – | > 100 µM (inactive) | > 100 µM (inactive) | > 100 µM (inactive) | > 100 µM (inactive) | > 100 µM (inactive) | > 100 µM (inactive) | > 100 µM (inactive)
Cc1ccc(/C=N/Nc2ccc3ccccc3n2)s1 | > 100 µM (inactive) | > 100 µM (inactive) | 15.3 µM (inactive) | 12 | 41.5 µM (inactive) | 25.2 µM (inactive) | 32.3 µM (inactive) | 15.5 µM (inactive) | 15.8 µM (inactive) | 9.55 µM (inactive) | 35.5 µM (inactive) | 27.3 µM (inactive) | 16.4 µM (inactive) | 83.4 µM (inactive) | > 100 µM (inactive) | 22.2 µM (inactive) | 23.2 µM (inactive) | 21.1 µM (inactive) | > 100 µM (inactive) | 6.01 µM (inactive)
